Assay results as given in patent US20260294915A1, “COMBINATION THERAPY COMPRISING A MAT2A INHIBITOR AND A TOPOISOMERASE INHIBITOR, A SPLICING INHIBITOR SULFONAMIDE, OR A KIF18 INHIBITOR” (IDEAYA BIOSCIENCES, INC., priority 2023, published 2026).
pIC50: −log10 of the molar value.

What was measured:
Type in all cases: cell-based
RT112/84 [1] = assay: 10-day proliferation (CTG), equimolar Compound A + Compound B (Example 1); conditions: Homo sapiens, RT112/84, 240 h, 10 days, single agent or 1:1 combo; for IC30: read-out: gIC30; for IC40: read-out: gIC40; for pIC50: read-out: gIC50; for IC60: read-out: gIC60; for IC70: read-out: gIC70; for IC80: read-out: gIC80; for IC90: read-out: gIC90; for IC100: read-out: gIC100
Experimental: (§1) A 10-day proliferation assay was performed in a panel of 5 MTAP-deficient and 2 wild type non-small cell lung and bladder cancer cell lines. Optimal cell seeding for all cell lines was determined by assessing the growth over a range of seeding densities in a 384-well format to identify conditions that permitted proliferation for 10 days. Cells were then plated at the optimal seeding density and treated with 20-point, two-fold dilution series of Compound A, sovilnesib (“Compound B”), or an equimolar combination of Compound A and Compound B. Concentrations tested for Compound A and Compound B alone or in combination ranged from 0.038 nM to 20,000 nM. A plate of cells was harvested at the time of compound addition to quantify the number of cells at the start of the combination (T0). For cell quantification, the harvested cells were lysed with Promega CellTiter-Glo (CTG) reagent according to the manufacturer's protocol and the chemiluminescent signal was detected on a Synergy Neo plate reader. CTG estimates cell number through detection of cellular ATP levels. Cells were incubated with the drug combinations at 37° C. with 5% CO2 for 10 days. Cells were then lysed with CTG and the chemiluminescent signal was measured.
(§2) CTG values obtained after the 10-day treatment were background subtracted and expressed as a percent of the T0 value. Data were plotted against compound concentration and fit with a four-parameter equation to generate dose response curves for each single agent and the equimolar combination. Growth ICx (gICx) values ranging from gIC30 to gIC100 were interpolated from the fitted curves. Synergistic growth inhibition was assessed by determination of Combination Index (CI) values at these various points across the titration using the mutually non-exclusive equation [Chou, 1983; Chou, 1981] shown below where A equals the gIC value of Compound A, B equals the gICx value of Compound B, and A+B or B+A equals the gICx value of the equimolar combination. A Combination Index value less than 1.0 was considered synergistic.
(§3) Synergy was measured for equimolar combinations of Compound A and Compound B utilizing the mutually non-exclusive Combination Index equation across gICx values ranging from gIC30-gIC100. Combination Index values are shown for: NCI-H838 (3A), SW900 (3B), RT112/84 (3C), UMUC5 (3D), and UMUC11 (3E).

NCI-H838 [2] = assay: as above; conditions: Homo sapiens, NCI-H838, 240 h, 10 days, single agent or 1:1 combo; for IC30: read-out: gIC30; for IC40: read-out: gIC40; for pIC50: read-out: gIC50; for IC60: read-out: gIC60; for IC70: read-out: gIC70; for IC80: read-out: gIC80; for IC90: read-out: gIC90; for IC100: read-out: gIC100
Experimental: as §1, §2, §3

SW900 = assay: as above; conditions: Homo sapiens, SW900, 240 h, 10 days, single agent or 1:1 combo; for IC30: read-out: gIC30; for IC40: read-out: gIC40; for pIC50: read-out: gIC50; for IC60: read-out: gIC60; for IC70: read-out: gIC70; for IC80: read-out: gIC80; for IC90: read-out: gIC90; for IC100: read-out: gIC100
Experimental: as §1, §2, §3

RT112/84 [3] = assay: 10-day proliferation (CTG), Compound B titration + 1000 nM Compound A, Bliss (Example 2); parameters: key: GDI, -100 to 100; 0 = cell number at T0
Experimental: (§4) A 10-day proliferation assay was performed in a panel of 5 MTAP-deficient and 2 wild type non-small cell lung and bladder cancer cell lines. Optimal cell seeding for all cell lines was determined by assessing the growth over a range of seeding densities in a 384-well format to identify conditions that permitted proliferation for 10 days. Cells were then plated at the optimal seeding density and treated with 20-point, two-fold dilution series of Compound B in combination with a 1000 nM fixed concentration of Compound A. Single agent titrations for Compound A and Compound B were included for comparison. Concentrations tested for Compound A and Compound B alone or in combination ranged from 0.038 nM to 20,000 nM. A plate of cells was harvested at the time of compound addition to quantify the number of cells at the start of the combination (T0). For cell quantification, the harvested cells were lysed with Promega CellTiter-Glo (CTG) reagent according to the manufacturer's protocol and the chemiluminescent signal was detected as described in Example 1 above. Cells were incubated with the drug combinations at 37° C. with 5% CO2 for 10 days. Cells were then lysed with CTG and the chemiluminescent signal was measured.
(§5) CTG values obtained after the 10-day treatment were background subtracted and expressed as a percent of the T0 value set at 100%. Data were plotted against compound concentration and fit with a four-parameter equation to generate single agent dose response curves. Percent inhibition was determined for each combination and single agent concentration compared to a DMSO control. In addition, the overall net growth or death of the cells was calculated and reported as a growth death index (GDI) value on a scale of −100 to 100 with the midpoint (0) being the number of cells at the beginning of the combination (T0).
(§6) Predicted inhibition was calculated using (Ea+Eb)−(Ea*Eb) where E equals the effect (inhibition) of each single agent (a and b). A difference between the observed inhibition percentage and the predicted inhibition percentage greater than 10% was considered synergistic. A Bliss score was only calculated for combinations eliciting >20% growth inhibition (GDI value <80). Since Bliss is calculated based on growth inhibition, scores within cytotoxic dose ranges may not accurately reflect synergistic cytotoxicity.
(§7) Synergy was measured across the Compound B titration with 1000 nM Compound A by Bliss Independence analysis. Bliss scores >10 are indicated by “*” and are considered synergistic. […] Synergy as reported using Bliss may be underrepresented within cytotoxic dose ranges. Growth death index values are shown for the combination titration and each single agent Compound A (Cmpd A) and Compound B (Cmpd B) on a scale of −100 to 100 with the midpoint (0) being the number of cells at the beginning of the combination (T0).

NCI-H838 [4] = assay: as above; parameters: key: GDI, -100 to 100; 0 = cell number at T0
Experimental: as §4, §5, §6, §7

[5] = Cmpd B 0.04 nM, combo: + 1000 nM Cmpd A
[6] = Cmpd B 0.1 nM, combo: + 1000 nM Cmpd A
[7] = Cmpd B 0.2 nM, combo: + 1000 nM Cmpd A
[8] = Cmpd B 0.3 nM, combo: + 1000 nM Cmpd A
[9] = Cmpd B 0.6 nM, combo: + 1000 nM Cmpd A
[10] = Cmpd B 1.2 nM, combo: + 1000 nM Cmpd A
[11] = Cmpd B 2.4 nM, combo: + 1000 nM Cmpd A
[12] = Cmpd B 4.9 nM, combo: + 1000 nM Cmpd A
[13] = Cmpd B 9.8 nM, combo: + 1000 nM Cmpd A
[14] = Cmpd B 19.5 nM, combo: + 1000 nM Cmpd A
[15] = Cmpd B 39.1 nM, combo: + 1000 nM Cmpd A
[16] = Cmpd B 78.1 nM, combo: + 1000 nM Cmpd A
[17] = Cmpd B 156.3 nM, combo: + 1000 nM Cmpd A
[18] = Cmpd B 312.5 nM, combo: + 1000 nM Cmpd A
[19] = Cmpd B 625 nM, combo: + 1000 nM Cmpd A
[20] = Cmpd B 1250 nM, combo: + 1000 nM Cmpd A
[21] = Cmpd B 2500 nM, combo: + 1000 nM Cmpd A
[22] = Cmpd B 5000 nM, combo: + 1000 nM Cmpd A
[23] = Cmpd B 10000 nM, combo: + 1000 nM Cmpd A
[24] = Cmpd B 20000 nM, combo: + 1000 nM Cmpd A

## Nc1nc(=O)n(-c2ccccc2Cl)c2nc(C(F)(F)F)ccc12 [Compound A]
RT112/84 [1]
  IC30: 0.277 µM
  IC40: 0.854 µM
  pIC50: 5.52
  IC60: 16 µM
  IC70: 20 µM
  IC80: 20 µM
  IC90: 20 µM
  IC100: 20 µM
NCI-H838 [2]
  IC30: 0.052 µM
  IC40: 0.09 µM
  pIC50: 6.68
  IC60: 20 µM
  IC70: 20 µM
  IC80: 20 µM
  IC90: 20 µM
  IC100: 20 µM
SW900
  IC30: 20 µM
  IC40: 20 µM
  pIC50: 4.70
  IC60: 20 µM
  IC70: 20 µM
  IC80: 20 µM
  IC90: 20 µM
  IC100: 20 µM
RT112/84 [3]; single agent, 1000 nM Cmpd A
  GDI: 60
NCI-H838 [4]; single agent, 1000 nM Cmpd A
  GDI: 52

## Cc1cc(NC(=O)c2ccc(NS(=O)(=O)CCO)cc2N2CCC3(CC2)CC3)nc(N2CCC(F)(F)CC2)n1 [Compound B, N-(2-(4,4-difluoropiperidin-1-yl)-6-methylpyrimidin-4-yl)-4-((2-hydroxyethyl)sulfonamido)-2-(6-azaspiro[2.5]octan-6-yl)benzamide]
RT112/84 [1]
  IC30: 0.15 µM
  IC40: 0.17 µM
  pIC50: 6.72
  IC60: 0.222 µM
  IC70: 0.273 µM
  IC80: 10.3 µM
  IC90: 20 µM
  IC100: 20 µM
NCI-H838 [2]
  IC30: 0.735 µM
  IC40: 1.48 µM
  pIC50: 4.90
  IC60: 14.3 µM
  IC70: 17 µM
  IC80: 20 µM
  IC90: 20 µM
  IC100: 20 µM
SW900
  IC30: 5.48 µM
  IC40: 8.55 µM
  pIC50: 4.91
  IC60: 16.6 µM
  IC70: 19.9 µM
  IC80: 20 µM
  IC90: 20 µM
  IC100: 20 µM
RT112/84 [3]; [5]
  GDI: 100
RT112/84 [3]; [6]
  GDI: 100
RT112/84 [3]; [7]
  GDI: 100
RT112/84 [3]; [8]
  GDI: 100
RT112/84 [3]; [9]
  GDI: 100
RT112/84 [3]; [10]
  GDI: 100
RT112/84 [3]; [11]
  GDI: 100
RT112/84 [3]; [12]
  GDI: 100
RT112/84 [3]; [13]
  GDI: 100
RT112/84 [3]; [14]
  GDI: 100
RT112/84 [3]; [15]
  GDI: 100
RT112/84 [3]; [16]
  GDI: 100
RT112/84 [3]; [17]
  GDI: 63
RT112/84 [3]; [18]
  GDI: 30
RT112/84 [3]; [19]
  GDI: 24
RT112/84 [3]; [20]
  GDI: 31
RT112/84 [3]; [21]
  GDI: 31
RT112/84 [3]; [22]
  GDI: 33
RT112/84 [3]; [23]
  GDI: 2
RT112/84 [3]; [24]
  GDI: −86
NCI-H838 [4]; [5]
  GDI: 100
NCI-H838 [4]; [6]
  GDI: 100
NCI-H838 [4]; [7]
  GDI: 100
NCI-H838 [4]; [8]
  GDI: 100
NCI-H838 [4]; [9]
  GDI: 100
NCI-H838 [4]; [10]
  GDI: 100
NCI-H838 [4]; [11]
  GDI: 100
NCI-H838 [4]; [12]
  GDI: 100
NCI-H838 [4]; [13]
  GDI: 100
NCI-H838 [4]; [14]
  GDI: 100
NCI-H838 [4]; [15]
  GDI: 100
NCI-H838 [4]; [16]
  GDI: 100
NCI-H838 [4]; [17]
  GDI: 74
NCI-H838 [4]; [18]
  GDI: 65
NCI-H838 [4]; [19]
  GDI: 55
NCI-H838 [4]; [20]
  GDI: 48
NCI-H838 [4]; [21]
  GDI: 58
NCI-H838 [4]; [22]
  GDI: 87
NCI-H838 [4]; [23]
  GDI: 61
NCI-H838 [4]; [24]
  GDI: −1
